{"source": "paper PMC4859512", "about": "“Polyamino-Isoprenic Derivatives Block Intrinsic Resistance of P. aeruginosa to Doxycycline and Chloramphenicol In Vitro” (PLoS ONE, 2016)", "key": {"[1]": {"tested_on": "P. aeruginosa PA01 (wt)", "assay": "Antibiotic susceptibility testing (broth micro-dilution MIC), strain PA01", "format": "cell-based, Pseudomonas aeruginosa", "conditions": "Pseudomonas aeruginosa, read-out: Minimal Inhibitory Concentration", "method": "(§1) Experiments were performed on the BAC-SCREEN platform of the UMR-MD1, with a Freedom EVO 150 liquid handling system (Tecan, Lyon, France).\n(§2) The same experiment was performed using chloramphenicol (4 mg/L) in combination with 3 (10 μM final concentration). […] These experiments were performed to study the effect of our compounds on the natural resistance of P. aeruginosa. […] Experiments were performed with the ß-lactams ceftazidime and ticarcillin and ciprofloxacin and amikacin."}, "[2]": {"tested_on": "human fibroblasts", "assay": "WST-1 cytotoxicity test, fibroblasts", "format": "cell-based", "conditions": "Homo sapiens, Fibroblast; WST1, 24 h; mean +/- SD, 2 independent experiments", "method": "(§3) CHO-K1 cells (ATCC-LGC Standards Sarl (Molsheim, France) and human fibroblasts (Clinisciences, Paris, France) were maintained in McCoy’s 5A and DMEM media, respectively, supplemented with 10% bovine calf serum, 2 mM glutamine, and 100 U/mL/10 μg/mL penicillin/streptomycin. They were incubated at 37°C in a humidified atmosphere containing 5% CO2. The cell lines were seeded in 96-well plates and incubated overnight. The cytotoxic effects of compounds were assessed by the colorimetric WST-1 cell proliferation assay as previously described. Briefly, a range of compound concentrations from 30 μM to 1200 μM was added to triplicate cultures, and cells were incubated at 37°C for 24 h. At the end of the incubation period, cultures were washed three times with phosphate buffer saline (PBS) and incubated in fresh culture medium containing 10% WST-1 for an additional 30 min. Cell viability was evaluated by measuring the WST-1 absorbance at 450 nm in a microplate spectrophotometer MRX1 II (Dynex technologies, Chantilly, VA, USA). The Inhibitory Concentration 50% (IC50) was chosen to evaluate the cytotoxicity of compounds. IC50 was defined as the concentration of a compound that induced a 50% decrease in viable cells. Doxorubicin was used as a positive control."}, "[3]": {"tested_on": "twenty clinical isolates of P. aeruginosa", "assay": "Combined antibiotic / polyamino-isoprenic derivative on MH agar plates, clinical isolates", "format": "cell-based, Pseudomonas aeruginosa", "conditions": "doxycycline 2 mg/L + compound 10 μM; 20 clinical isolates", "method": "MH agar plates were prepared, containing 2 mg/L doxycycline and 2 mg/L doxycycline in combination with compounds at a concentration of 10 μM. Bacteria, 5 μL of a suspension of each clinical isolate adjusted to 5 x 10^5 colony-forming units per ml were spotted on each plate and growth was monitored after a 18 h period of incubation at 37°C.\nPA01 is a well-studied reference strain of P. aeruginosa, however to extend our study we considered strains recently isolated from hospitalized patients. Thus, we decided to test this combination of doxycycline (2mg/L) with polyamino-isoprenic compounds (10 μM) on twenty clinical isolates recently isolated from the HIA-Laveran (see M&M section and S1 Table)."}, "[4]": {"tested_on": "P. aeruginosa CMZ091 (Mex XY overproducer)", "assay": "Antibiotic susceptibility testing (broth micro-dilution MIC), strain CMZ091", "format": "cell-based, Pseudomonas aeruginosa", "conditions": "Pseudomonas aeruginosa, read-out: Minimal Inhibitory Concentration", "method": "as §1\n(§4) We concluded that compound 3 was the best compound and suitable for a more detailed study. The same experiment was performed using chloramphenicol (4 mg/L) in combination with 3 (10 μM final concentration). Amongst the 20 clinical isolates, the growth of 15 (75%) was impaired, while 5 (25%) were resistant (data not shown). These experiments were performed to study the effect of our compounds on the natural resistance of P. aeruginosa. In addition, we were wondering if compound 3 could also increase susceptibility to other antibiotic families including ß-Lactams, fluoroquinolones and aminoglycosides, that are representative of the main classes of anti-pseudomonal agents. Experiments were performed with the ß-lactams ceftazidime and ticarcillin and ciprofloxacin and amikacin. […] . […] To better characterize compound 3, we first searched for the minimum concentration of compound that allowed killing of bacteria by doxycycline, and PAßN was used as the reference molecule."}, "[5]": {"tested_on": "P. aeruginosa PT629 (Mex AB overproducer)", "assay": "Antibiotic susceptibility testing (broth micro-dilution MIC), strain PT629", "format": "cell-based, Pseudomonas aeruginosa", "conditions": "Pseudomonas aeruginosa, read-out: Minimal Inhibitory Concentration", "method": "as §1, §4"}, "[6]": {"tested_on": "P. aeruginosa FB1 (Mex B deleted)", "assay": "Antibiotic susceptibility testing (broth micro-dilution MIC), strain FB1", "format": "cell-based", "conditions": "Pseudomonas aeruginosa, read-out: Minimal Inhibitory Concentration", "method": "as §1"}, "[7]": {"tested_on": "P. aeruginosa PA0-7H (Mex EF overproducer)", "assay": "Antibiotic susceptibility testing (broth micro-dilution MIC), strain PA0-7H", "format": "cell-based, Pseudomonas aeruginosa", "conditions": "Pseudomonas aeruginosa, read-out: Minimal Inhibitory Concentration", "method": "as §1, §4"}, "[8]": {"tested_on": "P. aeruginosa PA01 ERY^R (Mex CD overproducer)", "assay": "microbe, parasite or virus in culture", "format": "cell-based, Pseudomonas aeruginosa", "conditions": "Pseudomonas aeruginosa, read-out: Minimal Inhibitory Concentration", "method": "as §1, §2"}, "[9]": {"tested_on": "CHO-K1 cells", "assay": "cells", "format": "cell-based, Chinese Hamster", "conditions": "Cricetulus griseus, CHO-K1; WST1, 24 h; mean +/- SD, 2 independent experiments", "method": "as §3"}}, "note": "Several values for one entry are separate records, joined by “and”; a condition that tells them apart may be missing. Equal entries are not always repeated."}
{"compound": "CC(C)=CCCC(C)=CCCC(C)=CCNCCCN(CCCN)CCCN", "note": "[Compound 4]", "values": [{"measurement": "MIC", "setting": "[1]", "result": "49 µg/mL and 125 µM"}, {"measurement": "IC50", "setting": "[2]", "result": "136 ± 7.9", "unit": "µM"}, {"measurement": "isolates with doxycycline susceptibility restored", "setting": "[3]", "result": 88, "unit": "%"}, {"measurement": "MIC", "setting": "[4]", "result": "49 µg/mL and 125 µM"}, {"measurement": "MIC", "setting": "[5]", "result": "49 µg/mL and 125 µM"}, {"measurement": "MIC", "setting": "[6]", "result": "49 µg/mL and 125 µM"}, {"measurement": "MIC", "setting": "[7]", "result": "49 µg/mL and 125 µM"}, {"measurement": "MIC", "setting": "[8]", "result": "25 µg/mL and 62.5 µM"}, {"measurement": "IC50", "setting": "[9]", "result": "363 ± 20.3", "unit": "µM"}]}
{"compound": "O=C(N[C@H](CO)[C@H](O)c1ccc([N+](=O)[O-])cc1)C(Cl)Cl", "note": "[chloramphenicol]", "values": [{"measurement": "MIC", "setting": "[1]", "result": 256, "unit": "mg/L"}, {"measurement": "MIC", "setting": "[4]", "result": 256, "unit": "mg/L"}, {"measurement": "MIC", "setting": "[5]", "result": 512, "unit": "mg/L"}, {"measurement": "MIC", "setting": "[6]", "result": 8, "unit": "mg/L"}, {"measurement": "MIC", "setting": "[7]", "result": "> 1020", "unit": "mg/L"}, {"measurement": "MIC", "setting": "[8]", "result": 256, "unit": "mg/L"}]}
